According to PubChem BioAssay AID330 (DTP/NCI, 2004):
Inconclusive results and toxic doses are left out.

Test system: P388 leukemia ip, CD2F1 mice, survival T/C
Assay: NCI In Vivo Anticancer Drug Screen. Data for tumor model P388 Leukemia (intraperitoneal) in CD2F1 (CDF1) mice
Conditions: endpoint: median survival time, higher = longer survival
Procedure, shortened: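 Mice carrying the transplanted tumor received test compound or vehicle. Survival was recorded in each group, and the value is the treated-group measurement divided by that of the vehicle-treated control group.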

[1] = dose: 12.5 mg/kg/injection, schedule: Q01DX009 (ip), vehicle: saline
[2] = dose: 50.0 mg/kg/injection, schedule: Q01DX009 (ip), vehicle: saline with Tween-80
[3] = dose: 100.0 mg/kg/injection, schedule: Q01DX009 (ip), vehicle: saline with Tween-80
[4] = dose: 200.0 mg/kg/injection, schedule: Q01DX009 (ip), vehicle: saline with Tween-80

Compound: NCCN.NCCN.NCCN.[Cl-].[Pt]
- T/C (dose: 1.56 mg/kg/injection, schedule: Q01DX009 (ip), vehicle: saline): 101 % of control
- T/C (dose: 3.13 mg/kg/injection, schedule: Q01DX009 (ip), vehicle: saline): 101 % of control
- T/C (dose: 6.25 mg/kg/injection, schedule: Q01DX009 (ip), vehicle: saline): 107 % of control
- T/C [1]: 99 % of control

Compound: CCOC(=O)/C=C/C(=O)NNS(=O)(=O)CC(N)C(=O)O (stereo not drawn)
- T/C (dose: 100.0 mg/kg/injection, schedule: Q04DX003 (ip), vehicle: acid diluted with saline): 105 % of control
- T/C (dose: 200.0 mg/kg/injection, schedule: Q04DX003 (ip), vehicle: acid diluted with saline): 109 % of control

Compound: NC(N)=N/N=C/c1ccc(Cl)c(Cl)c1
- T/C (dose: 12.5 mg/kg/injection, schedule: Q01DX009 (ip), vehicle: saline with Tween-80): 100 % of control
- T/C (dose: 25.0 mg/kg/injection, schedule: Q01DX009 (ip), vehicle: saline with Tween-80): 95 % of control
- T/C [2]: 86 % of control

Compound: CCC[As](C)SC1OC(COC(C)=O)C(OC(C)=O)C(OC(C)=O)C1OC(C)=O (stereo not drawn)
- T/C [2]: 110 % of control
- T/C [3]: 110 % of control
- T/C [4]: 110 % of control

Compound: CCCCCn1[nH]nc(C(=O)OC)c1=O (tested in a mixture with another compound)
- T/C (dose: 50.0 mg/kg/injection, schedule: Q01DX005 (ip), vehicle: Klucel (hydroxypropylcellulose) (HPC)): 102 % of control
- T/C (dose: 100.0 mg/kg/injection, schedule: Q01DX005 (ip), vehicle: Klucel (hydroxypropylcellulose) (HPC)): 95 % of control
- T/C (dose: 200.0 mg/kg/injection, schedule: Q01DX005 (ip), vehicle: Klucel (hydroxypropylcellulose) (HPC)): 103 % of control

Compound: Nc1ccc2c(Cl)cc(Cl)cc2c1
- T/C [2]: 100 % of control
- T/C [3]: 104 % of control

Compound: O=C(OC1CC2CCC1C2)c1cc([N+](=O)[O-])cc([N+](=O)[O-])c1 (stereo not drawn)
- T/C [2]: 107 % of control
- T/C [3]: 100 % of control
- T/C (dose: 100.0 mg/kg/injection, schedule: Q04DX002 (ip), vehicle: saline with Tween-80): 108 % of control
- T/C [4]: 90 % of control
- T/C (dose: 200.0 mg/kg/injection, schedule: Q04DX002 (ip), vehicle: saline with Tween-80): 105 % of control
- T/C (dose: 400.0 mg/kg/injection, schedule: Q04DX002 (ip), vehicle: saline with Tween-80): 100 % of control

Compound: Cc1ccc2c(=O)ccn(Cc3ccccc3)c2n1
- T/C (dose: 100.0 mg/kg/injection, schedule: Q01DX001 (ip), vehicle: saline): 101 % of control
- T/C (dose: 200.0 mg/kg/injection, schedule: Q01DX001 (ip), vehicle: saline): 103 % of control
- T/C (dose: 400.0 mg/kg/injection, schedule: Q01DX001 (ip), vehicle: saline): 92 % of control

Compound: [N-]=[N+]=Nc1ccccc1C(=O)Nc1ccccc1C(N)=O
- T/C (dose: 100.0 mg/kg/injection, schedule: Q04DX002 (ip), vehicle: Klucel (hydroxypropylcellulose) (HPC)): 101 % of control
- T/C (dose: 200.0 mg/kg/injection, schedule: Q04DX002 (ip), vehicle: Klucel (hydroxypropylcellulose) (HPC)): 104 % of control
- T/C (dose: 400.0 mg/kg/injection, schedule: Q04DX002 (ip), vehicle: Klucel (hydroxypropylcellulose) (HPC)): 104 % of control

Compound: C1OC1CO[C@@H]1CO[C@H]2[C@@H]1OC[C@H]2OCC1CO1 (stereo partly drawn)
- T/C [1]: 120 % of control
- T/C (dose: 100.0 mg/kg/injection, schedule: Q01DX009 (ip), vehicle: saline): 194 % of control
- T/C (dose: 100.0 mg/kg/injection, schedule: Q01DX009 (ip), vehicle: suspension in saline): 163 % of control
- T/C (dose: 200.0 mg/kg/injection, schedule: Q01DX009 (ip), vehicle: saline): 192 % of control
- T/C (dose: 400.0 mg/kg/injection, schedule: Q01DX009 (ip), vehicle: saline with Tween-80): 213 % of control
- T/C (dose: 400.0 mg/kg/injection, schedule: Q01DX009 (ip), vehicle: saline): 94 % of control
- T/C (dose: 400.0 mg/kg/injection, schedule: Q01DX009 (ip), vehicle: suspension in saline): 100 % of control
- T/C (dose: 400.0 mg/kg/injection, schedule: Q04DX003 (ip), vehicle: saline with Tween-80): 186 % of control
- T/C (dose: 600.0 mg/kg/injection, schedule: Q04DX003 (ip), vehicle: saline with Tween-80): 200 % of control
